Converted amounts (≈) assume the structure as drawn. Where two headings read alike, the source gives them in different places.
Experiments:
S. aureus ATCC29213 [1] = settings: cited from earlier work
E. coli ATCC25922 [2] = assay: antibiotic susceptibility testing on the array microfluidic chip (redox indicator discoloration); assay type: cell-based, Escherichia coli; settings: for MIC: Escherichia coli, read-out: minimum inhibitory concentration (MIC)
From the text: (§1) In the present experiment, the array microfluidic chip of the present disclosure is used to perform the antibiotic susceptibility testing on Escherichia coli ATCC25922 (“E. coli ATCC25922” hereafter) and Staphylococcus aureus ATCC29213 (“S. aureus ATCC29213” hereafter) to three antibiotics, namely Amikacin, Gentamicin and Vancomycin.
(§2) In the experiment, the dried powders of Amikacin, Gentamicin or Vancomycin are respectively placed in different reaction wells of the array microfluidic chip with different contents, and then the array microfluidic chip is sealed and keeps refrigerated. Next, redox indicators with proper amounts are respectively added to the bacteria-containing mediums including E. coli ATCC25922 or S. aureus ATCC29213, and the bacteria-containing mediums are transported to different reaction wells of different array microfluidic chips and then mixed with the antibiotic powders with different contents thereof so as to form the reaction solutions including different concentrations of antibiotics.
Next, the array microfluidic chips are placed in the incubator and cultured at 37° C., and the antibiotic susceptibilities of E. coli ATCC25922 and S. aureus ATCC29213 to Amikacin, Gentamicin and Vancomycin are further assessed based on the discoloration of the reaction solutions. In detail, if E. coli ATCC25922 and S. aureus ATCC29213 can grow under the existence of a specific antibiotic with a particular concentration, the color of the reaction solution including the redox indicator will gradually change from blue to purple, and eventually to pink, and the discoloration can be observed on the array microfluidic chip directly. Therefore, the assessing time of the method of antibiotic susceptibility testing of the present disclosure can be greatly shortened.
Please refer to FIG. 10A, FIG. 10B, FIG. 10C and Table 2 simultaneously. […] Furthermore, in FIG. 10C, the far left one is the image of the independent well performed a negative control test, and it is noted that the testing result of the independent well is not shown in Table 2. […]

S. aureus ATCC29213 [3] = assay: as above; assay type: cell-based, Staphylococcus aureus; settings: 5 hours and 30 minutes
From the text: as §1, §2
Next, the array microfluidic chips are placed in the incubator and cultured at 37° C., and the antibiotic susceptibilities of E. coli ATCC25922 and S. aureus ATCC29213 to Amikacin, Gentamicin and Vancomycin are further assessed based on the discoloration of the reaction solutions. […]

E. coli ATCC25922 [4] = settings: cited from earlier work

Compound | CLSI standard value MIC (S. aureus ATCC29213 [1]) | MIC (E. coli ATCC25922 [2]; ATCC25922, array microfluidic chip, 37° C., 4 hours) [µg/mL] | MIC (S. aureus ATCC29213 [3]; Staphylococcus aureus, ATCC29213, 37° C., read-out: minimum inhibitory concentration) [µg/mL] | CLSI standard value MIC (E. coli ATCC25922 [4]) | MIC (E. coli ATCC25922 [2]; ATCC25922, 4 h) [µg/mL] | minimum inhibitory concentration (MIC) (E. coli ATCC25922 [2]; array microfluidic chip, 37° C., 4 hours) [µg/mL] | minimum inhibitory concentration (S. aureus ATCC29213 [3]; 37° C.) [µg/mL]
NCC[C@H](O)C(=O)N[C@@H]1C[C@H](N)[C@@H](O[C@H]2O[C@H](CN)[C@@H](O)[C@H](O)[C@H]2O)[C@H](O)[C@H]1O[C@H]1O[C@H](CO)[C@@H](O)[C@H](N)[C@H]1O [Amikacin] | 1˜4 μg/mL | 1 (≈ 1.71 µM) | 1 (≈ 1.71 µM) | 0.5˜4 μg/mL | – | – | –
CN[C@H](CC(C)C)C(=O)N[C@H]1C(=O)N[C@@H](CC(N)=O)C(=O)N[C@H]2C(=O)N[C@H]3C(=O)N[C@H](C(=O)N[C@H](C(=O)O)c4cc(O)cc(O)c4-c4cc3ccc4O)[C@H](O)c3ccc(c(Cl)c3)Oc3cc2cc(c3O[C@@H]2O[C@H](CO)[C@@H](O)[C@H](O)[C@H]2O[C@H]2C[C@](C)(N)[C@H](O)[C@H](C)O2)Oc2ccc(cc2Cl)[C@H]1O [Vancomycin] | 0.5˜2 μg/mL | – | – | R-resistance | > 16 | – | –
Gentamicin | 0.12˜1 μg/mL | – | – | 0.251 µg/mL | – | 1 | 0.25

Reference: patent publication US12263479B2, “Array microfluidic chip and method of antibiotic susceptibility testing” (MEDFLUID CO., LTD., priority 2021, dated 2025)
